pEC50: −log10 of the molar value.
Key:
[1] = molecular target: T1, muscarinic M1 receptor (Homo sapiens, UniProt P11229); test: M1 PAM Assay (IP-One HTRF, IP1 in M1-CHO cells with EC20 of acetylcholine); assay type: cell-based; conditions: 1 hour at room temperature, IP1 readout
T1 construct: expressed in transfected cells; host or cells: CHO (M1-CHO cells)
T1 sequence (P11229 1-460): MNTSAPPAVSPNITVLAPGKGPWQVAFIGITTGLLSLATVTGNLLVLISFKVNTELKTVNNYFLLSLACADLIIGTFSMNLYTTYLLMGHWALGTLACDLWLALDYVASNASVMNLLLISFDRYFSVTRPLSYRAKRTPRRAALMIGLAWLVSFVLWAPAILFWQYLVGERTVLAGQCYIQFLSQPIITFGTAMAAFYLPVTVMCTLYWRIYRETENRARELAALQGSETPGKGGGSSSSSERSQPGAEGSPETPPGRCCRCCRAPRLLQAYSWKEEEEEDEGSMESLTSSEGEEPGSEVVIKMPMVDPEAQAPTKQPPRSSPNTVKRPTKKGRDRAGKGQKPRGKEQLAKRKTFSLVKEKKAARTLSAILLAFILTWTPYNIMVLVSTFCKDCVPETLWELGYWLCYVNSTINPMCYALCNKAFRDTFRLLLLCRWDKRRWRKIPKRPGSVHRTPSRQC
Description: M1-CHO cells are plated in culture medium (HAM's F12, P/S, 10% FCS) on the day before the experiment with 10 000 cells/well in a 384 well plate (3750 Corning White 384 w plate with lid). On the day of experiment, cells are washed with PBS and IPone buffer is added (glucose 5.5 mM, NaCl 146 mM, MgCl2 0.5 mM, HEPES 10 mM, LiCl 50 mM, CaCl2 1 mM, KCl 4.2 mM). Then diluted compounds (1% DMSO final concentration) are added together with EC20 of acetylcholine and incubated with the cells for 1 hour at room temperature. The intracellular concentration of IP1 is then measured using the IP-One HTRF assay from Cisbio.

Row | SMILES | pEC50 [1] | melting point
1 | Cc1nc2c3c(nn2c(C)c1Cl)CN(C(=O)c1ccccc1OCCN(C)C)C3 [Example 8, (6-chloro-5,7-dimethyl-1H,3H-2,4,7a,8-tetraaza-cyclopenta[a]inden-2-yl)-[2-(2-dimethylamino-ethoxy)-phenyl]-methanone] | 6.00 to 6.70 | 156 to 159 °C
2 | CCOc1ccccc1C(=O)N1Cc2nn3c(C)c(Cl)c(C)nc3c2C1 [Example 10] | 6.00 to 6.70 | 164 to 167 °C
3 | CCCCOc1ccccc1C(=O)N1Cc2nn3c(C)c(Cl)c(C)nc3c2C1 [Example 11, (2-butoxy-phenyl)-(6-chloro-5,7-dimethyl-1H,3H-2,4,7a,8-tetraaza-cyclopenta[a]inden-2-yl)-methanone] | 6.00 to 6.70 | 167 to 169 °C
4 | Cc1nc2c3c(nn2c(C)c1Cl)CN(C(=O)c1ccccc1OC(F)(F)F)C3 [Example 14, (6-chloro-5,7-dimethyl-1H,3H-2,4,7a,8-tetraaza-cyclopenta[a]inden-2-yl)-(2-trifluoromethoxy-phenyl)-methanone] | 6.00 to 6.70 | 179 to 181 °C
5 | CSCCOc1ccccc1C(=O)N1Cc2nn3c(C)c(Cl)c(C)nc3c2C1 [Example 15, (6-chloro-5,7-dimethyl-1H,3H-2,4,7a,8-tetraaza-cyclopenta[a]inden-2-yl)-[2-(2-methylsulfanyl-ethoxy)-phenyl]-methanone] | 6.00 to 6.70 | 183 to 185 °C
6 | COc1c(F)cc(F)cc1C(=O)N1Cc2nn3c(C)c(Cl)c(C)nc3c2C1 [Example 16, (6-chloro-5,7-dimethyl-1H,3H-2,4,7a,8-tetraaza-cyclopenta[a]inden-2-yl)-(3,5-difluoro-2-methoxy-phenyl)-methanone] | 6.00 to 6.70 | 185 to 187 °C
7 | Cc1nc2c3c(nn2c(C)c1C)CN(C(=O)c1ccccc1OCCN(C)C)C3 [Example 22, [2-(2-dimethylamino-ethoxy)-phenyl]-(5,6,7-trimethyl-1H,3H-2,4,7a,8-tetraaza-cyclopenta[a]inden-2-yl)-methanone] | 6.00 to 6.70 | 148 to 150 °C
8 | CCOc1c(F)cc(F)cc1C(=O)N1Cc2nn3c(C)c(Cl)c(C)nc3c2C1 [Example 28, (6-chloro-5,7-dimethyl-1H,3H-2,4,7a,8-tetraaza-cyclopenta[a]inden-2-yl)-(2-ethoxy-3,5-difluoro-phenyl)-methanone] | 5.70 to 6.00 | 153 to 155 °C
9 | Cc1nc2c3c(nn2c(C)c1Cl)CN(C(=O)c1ccccc1OCC(C)C)C3 [Example 30, (6-Chloro-5,7-dimethyl-1H,3H-2,4,7a,8-tetraaza-cyclopenta[a]inden-2-yl)-(2-isobutoxy-phenyl)-methanone] | 5.70 to 6.00 | 184 to 187 °C
10 | CC(C)Oc1ccccc1C(=O)N1Cc2nn3cc(Cl)cnc3c2C1 [Example 42, (6-chloro-1H,3H-2,4,7a,8-tetraaza-cyclopenta[a]inden-2-yl)-(2-isopropoxy-phenyl)-methanone] | 5.70 to 6.00 | 160 to 161 °C
11 | Cc1nc2c3c(nn2c(C)c1C)CN(C(=O)c1ccccc1C(F)(F)F)C3 [Example 43, (2-trifluoromethyl-phenyl)-(5,6,7-trimethyl-1H,3H-2,4,7a,8-tetraaza-cyclopenta[a]inden-2-yl)-methanone] | 5.70 to 6.00 | –
12 | COC(=O)c1ccccc1C(=O)N1Cc2nn3c(C)c(C)c(C)nc3c2C1 [Example 44, 2-(5,6,7-trimethyl-1H,3H-2,4,7a,8-tetraaza-cyclopenta[a]indene-2-carbonyl)-benzoic acid methyl ester] | 5.70 to 6.00 | –
13 | CCOc1ccccc1C(=O)N1Cc2nn3cc(Cl)cnc3c2C1 [Example 46, (6-chloro-1H,3H-2,4,7a,8-tetraaza-cyclopenta[a]inden-2-yl)-(2-ethoxy-phenyl)-methanone] | 5.70 to 6.00 | –
14 | Cc1cnc2c3c(nn2c1)CN(C(=O)c1ccccc1OCCN(C)C)C3 [Example 47, [2-(2-dimethylamino-ethoxy)-phenyl]-(6-methyl-1H,3H-2,4,7a,8-tetraaza-cyclopenta[a]inden-2-yl)-methanone] | 5.70 to 6.00 | –
15 | CCOc1ccccc1C(=O)N1Cc2nn3cc(Br)cnc3c2C1 [Example 48, (6-bromo-1H,3H-2,4,7a,8-tetraaza-cyclopenta[a]inden-2-yl)-(2-ethoxy-phenyl)-methanone] | 5.70 to 6.00 | –
16 | Cc1nc2c3c(nn2c(C)c1C)CN(C(=O)c1ccccc1Br)C3 [Example 49, (2-bromo-phenyl)-(5,6,7-trimethyl-1H,3H-2,4,7a,8-tetraaza-cyclopenta[a]inden-2-yl)-methanone] | 5.70 to 6.00 | –

Other lines, results leading:

Row | pEC50 [1] | melting point | SMILES
17 | – | 210 to 217 °C | Cc1nc2c3c(nn2c(C)c1Cl)CN(C(=O)c1ccccc1CN1CCC(O)C1)C3 (stereo not drawn) [Example 72, (6-chloro-5,7-dimethyl-1H,3H-2,4,7a,8-tetraaza-cyclopenta[a]inden-2-yl)-[2-(3-hydroxy-pyrrolidin-1-ylmethyl)-phenyl]-methanone]
18 | – | 223 to 227 °C | Cc1nc2c3c(nn2c(C)c1Cl)CN(C(=O)c1ccccc1CN1CCC(O)(C(F)(F)F)CC1)C3 [Example 90, (6-chloro-5,7-dimethyl-1H,3H-2,4,7a,8-tetraaza-cyclopenta[a]inden-2-yl)-[2-(4-hydroxy-4-trifluoromethyl-piperidin-1-ylmethyl)-phenyl]-methanone]
19 | – | 174 to 177 °C | Cc1nc2c3c(nn2c(C)c1Cl)CN(C(=O)c1ccccc1CN1C[C@H]2CN(C)C[C@H]2C1)C3 [Example 94, (6-chloro-5,7-dimethyl-1H,3H-2,4,7a,8-tetraaza-cyclopenta[a]inden-2-yl)-[2-((3aR,6aS)-5-methyl-hexahydro-pyrrolo[3,4-c]pyrrol-2-ylmethyl)-phenyl]-methanone]
20 | – | 138 to 141 °C | Cc1nc2c3c(nn2c(C)c1Cl)CN(C(=O)c1ccccc1CN1CCCN(C)CC1)C3 [Example 95, (6-Chloro-5,7-dimethyl-1H,3H-2,4,7a,8-tetraaza-cyclopenta[a]inden-2-yl)-[2-(4-methyl-[1,4]diazepan-1-ylmethyl)-phenyl]-methanone]
21 | – | 180 to 182 °C | Cc1nc2c3c(nn2c(C)c1Cl)CN(C(=O)c1ccccc1CN1CCN2CCCC2C1)C3 (stereo not drawn) [Example 97, (6-chloro-5,7-dimethyl-1H,3H-2,4,7a,8-tetraaza-cyclopenta[a]inden-2-yl)-[2-(hexahydro-pyrrolo[1,2-a]pyrazin-2-ylmethyl)-phenyl]-methanone]
22 | – | 194 to 196 °C | O=C(c1ccccc1OC(F)(F)C(F)F)N1Cc2nn3cc(Cl)cnc3c2C1 [Example 106, (6-chloro-1H,3H-2,4,7a,8-tetraaza-cyclopenta[a]inden-2-yl)-[2-(1,1,2,2-tetrafluoro-ethoxy)-phenyl]-methanone]
23 | – | 195 to 200 °C | Cc1nc2c3c(nn2c(C)c1Cl)CN(C(=O)c1ccccc1CN1CCNC(C)C1)C3 (stereo not drawn) [Example 116, (6-chloro-5,7-dimethyl-1H,3H-2,4,7a,8-tetraaza-cyclopenta[a]inden-2-yl)-[2-(3-methyl-piperazin-1-ylmethyl)-phenyl]-methanone]
24 | – | 176 to 183 °C | Cc1nc2c3c(nn2c(C)c1Cl)CN(C(=O)c1ccccc1CN1CCNCC1=O)C3 [Example 117, 1-[2-(6-chloro-5,7-dimethyl-1H,3H-2,4,7a,8-tetraaza-cyclopenta[a]indene-2-carbonyl)-benzyl]-piperazin-2-one]
25 | – | 185 to 192 °C | Cc1nc2c3c(nn2c(C)c1Cl)CN(C(=O)c1ccccc1CN1CCCNCC1)C3 [Example 118, (6-chloro-5,7-dimethyl-1H,3H-2,4,7a,8-tetraaza-cyclopenta[a]inden-2-yl)-(2-[1,4]diazepan-1-ylmethyl-phenyl)-methanone]
26 | – | 165 to 170 °C | Cc1nc2c3c(nn2c(C)c1Cl)CN(C(=O)c1ccccc1CN1CCCC(N)C1)C3 (stereo not drawn) [Example 125, [2-(3-amino-piperidin-1-ylmethyl)-phenyl]-(6-chloro-5,7-dimethyl-1H,3H-2,4,7a,8-tetraaza-cyclopenta[a]inden-2-yl)-methanone]
27 | – | 159 to 162 °C | Cc1nc2c3c(nn2c(C)c1Cl)CN(C(=O)c1ccccc1CN1CC(N(C)C)C1)C3 [Example 126, (6-chloro-5,7-dimethyl-1H,3H-2,4,7a,8-tetraaza-cyclopenta[a]inden-2-yl)-[2-(3-dimethylamino-azetidin-1-ylmethyl)-phenyl]-methanone]
28 | – | 208 to 210 °C | O=C(c1ccc(F)cc1OC(F)(F)C(F)F)N1Cc2nn3cc(Cl)cnc3c2C1 [Example 138, (6-chloro-1H,3H-2,4,7a,8-tetraaza-cyclopenta[a]inden-2-yl)-[4-fluoro-2-(1,1,2,2-tetrafluoro-ethoxy)-phenyl]-methanone]
29 | – | 168 to 174 °C | Cc1nc2c3c(nn2c(C)c1Cl)CN(C(=O)c1ccccc1CN(CCN(C)C)CC(F)(F)F)C3 [Example 154, (6-chloro-5,7-dimethyl-1H,3H-2,4,7a,8-tetraaza-cyclopenta[a]inden-2-yl)-(2-{[(2-dimethylamino-ethyl)-(2,2,2-trifluoro-ethyl)-amino]-methyl}-phenyl)-methanone]
